Read-outs that look alike come from different tables or passages of the source.
Key:
GST-Bcl-2 = GST-Bcl-2 (Homo sapiens, UniProt P10415); assay: TR-FRET Bcl-2 binding assay (F-Bak peptide probe); details: GST-Bcl-2 1 nM, F-Bak peptide probe 100 nM, Tb-anti-GST 1 nM; Wang's equation; '<' = below limit of detection
Description: Determination of the utility of compounds of this invention as binders to and inhibitors of anti-apoptotic Bcl-2 proteins was performed using the Time Resolved-Fluorescence Resonance Energy Transfer (TR-FRET) Assay. Tb-anti-GST antibody was purchased from Invitrogen (Catalog No. PV4216).
Representative compounds were serially diluted in dimethyl sulfoxide (DMSO) starting at 50 μM (2× starting concentration; 10% DMSO) and 10 μL were transferred into a 384-well plate. The samples are then mixed on a shaker for 1 minute and incubated for an additional 3 hours at room temperature. For each assay, the probe/antibody and protein/probe/antibody were included on each assay plate as negative and positive controls, respectively. Fluorescence was measured on the Envision (Perkin Elmer) using a 340/35 nm excitation filter and 520/525 (F-Bak peptide) and 495/510 nm (Tb-labeled […] antibody) emission filters. Dissociation constants (Ki) are shown in TABLE 2 below and were determined using Wang's equation (Wang Z.-X., An Exact Mathematical Expression For Describing Competitive Binding Of Two Different Ligands To A Protein Molecule. FEBS Lett. 1995, 360:111-4).
The samples were then mixed on a shaker for 1 minute and incubated for an additional 3 hours at room temperature. For each assay, the probe/antibody and protein/probe/antibody were included on each assay plate as negative and positive controls, respectively. Fluorescence was measured on the Envision (Perkin Elmer) using a 340/35 nm excitation filter and 520/525 (F-Bak peptide) and 495/510 nm (Tb-labeled anti-Histidine antibody) emission filters.
Inhibition constants (Ki) for compounds were determined using Wang's equation (Wang Zx. An Exact Mathematical Expression For Describing Competitive Binding Of Two Different Ligands To A Protein Molecule. FEBS Lett. 1995, 360:111-4).
The inhibition constant (Ki) is the dissociation constant of an enzyme-inhibitor complex or a protein/small molecule complex, wherein the small molecule is inhibiting binding of one protein to another protein or peptide. So a large Ki value indicates a low binding affinity and a small Ki value indicates a high binding affinity. […] The compounds are therefore expected to have utility in treatment of diseases during which anti-apoptotic Bcl-2 protein is expressed. Biological Data

RS4;11 cells = assay: RS4;11 cell viability assay (CellTiter Glo); assay type: cell-based; details: 10% human serum, 48 hours
From the text: The acute lymphoblastic leukemia (ALL) cell line RS4;11 was used as the primary human cell line to assess the cellular activity of Bcl-2 selective agents in vitro and their efficacy in vivo. Previous studies have shown by BH3 profiling, a mitochondrial assay that classifies blocks in the intrinsic apoptotic pathway, that RS4;11 cells were highly dependant on BCL-2 for survival and sensitive to the Bcl-2 family member inhibitor ABT-737 (Blood, 2008, Vol. 111, 2300-2309).
RS4;11 cells were cultured in RPMI-1640 supplemented with 2 mM L-glutamine, 10% FBS, 1 mM sodium pyruvate, 2 mM HEPES, 1% penicillin/streptomycin (Invitrogen), 4.5 g/L glucose and maintained at 37 C containing 5% CO2. To test for the cellular activity of compounds in vitro, cells were treated at 50,000 cells per well in 96-well microtiter plates in the presence of 10% human serum for 48 hours in a humidified chamber with 5% CO2. Cell cytotoxicity EC50 values were assessed using CellTiter Glo (Promega) according to the manufacturer's recommendations. The EC50 values were determined as a percentage of viable cells following treatment compared to the untreated control cells.

lymphocytes = assay: Lymphocyte reduction in C57BL/6 mice; assay type: in vivo; details: Mus musculus, ip
Description: An experiment was performed to evaluate the effect of Bcl-2 selective/Bcl-xL sparing compounds on immune cells and platelets, as evaluated in C57Bl/6 mice. Mice were treated four days with compounds (doses of 30 mg/kg, administered by intraperitoneal injection every day) and cell numbers were measured with a Cell Dyn hematology analyzer 24 hours after the first and last doses. Exposure of the compound (area under the curve) was calculated by using time points of 1, 6, 10 and 24 hours after the last dose.

[1] = 30 mg/kg intraperitoneal every day for four days, 24 hours after the last dose, read-out: Lymphocyte reduction % inh. day 4
[2] = 30 mg/kg intraperitoneal every day, 24 hours after the first dose, read-out: Lymphocyte reduction % inh. day 1

GST-Bcl-2, sequence (P10415 whole entry): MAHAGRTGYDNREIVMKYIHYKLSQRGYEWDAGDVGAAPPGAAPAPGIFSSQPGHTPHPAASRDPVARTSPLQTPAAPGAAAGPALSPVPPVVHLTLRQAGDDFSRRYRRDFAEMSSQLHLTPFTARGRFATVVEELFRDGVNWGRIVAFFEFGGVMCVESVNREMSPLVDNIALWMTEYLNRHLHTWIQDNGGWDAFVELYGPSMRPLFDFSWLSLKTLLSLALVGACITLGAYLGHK

## CC1(C)CCC(CN2CCN(c3ccc(C(=O)NS(=O)(=O)c4ccc(NC[C@@H]5COCCO5)c([N+](=O)[O-])c4)c(Oc4cnc5[nH]ccc5c4)c3)CC2)=C(c2ccc(Cl)cc2)C1 [Example 1, 4-(4-{[2-(4-chlorophenyl)-4,4-dimethylcyclohex-1-en-1-yl]methyl}piperazin-1-yl)-N-[(4-{[(2R)-1,4-dioxan-2-ylmethyl]amino}-3-nitrophenyl)sulfonyl]-2-(1H-pyrrolo[2,3-b]pyridin-5-yloxy)benzamide]
GST-Bcl-2
  Ki: < 0.1 nM
RS4;11 cells
  EC50: 5.3 nM
lymphocytes; [1]
  inhibition at 30 mg/kg: 41%
lymphocytes; [2]
  inhibition at 30 mg/kg: 41%

## C[C@@H](Nc1ccc(S(=O)(=O)NC(=O)c2ccc(N3CCN(CC4=C(c5ccc(Cl)cc5)CC(C)(C)CC4)CC3)cc2Oc2cnc3[nH]ccc3c2)cc1[N+](=O)[O-])C1CCOCC1 [Example 3, 4-(4-{[2-(4-chlorophenyl)-4,4-dimethylcyclohex-1-en-1-yl]methyl}piperazin-1-yl)-N-[(3-nitro-4-{[(1R)-1-(tetrahydro-2H-pyran-4-yl)ethyl]amino}phenyl)sulfonyl]-2-(1H-pyrrolo[2,3-b]pyridin-5-yloxy)benzamide]
GST-Bcl-2
  Ki: < 0.1 nM
RS4;11 cells
  EC50: 150 nM
lymphocytes; [1]
  inhibition at 30 mg/kg: < 15%
lymphocytes; [2]
  inhibition at 30 mg/kg: < 15%

## CC1(C)CCC(CN2CCN(c3ccc(C(=O)NS(=O)(=O)c4ccc(NC[C@H]5CC[C@@]6(CCCO6)CC5)c([N+](=O)[O-])c4)c(Oc4cnc5[nH]ccc5c4)c3)CC2)=C(c2ccc(Cl)cc2)C1 [Example 5, 4-(4-{[2-(4-chlorophenyl)-4,4-dimethylcyclohex-1-en-1-yl]methyl}piperazin-1-yl)-N-[(3-nitro-4-{[(5R,8R)-1-oxaspiro[4.5]dec-8-ylmethyl]amino}phenyl)sulfonyl]-2-(1H-pyrrolo[2,3-b]pyridin-5-yloxy)benzamide]
GST-Bcl-2
  Ki: < 0.1 nM
RS4;11 cells
  EC50: 5.2 nM
lymphocytes; [1]
  inhibition at 30 mg/kg: 45%
lymphocytes; [2]
  inhibition at 30 mg/kg: 47%

## CC1(C)CCC(CN2CCN(c3ccc(C(=O)NS(=O)(=O)c4ccc(NCC5(O)CCOCC5)c([N+](=O)[O-])c4)c(Oc4cnc5[nH]ccc5c4)c3)CC2)=C(c2ccc(Cl)cc2)C1 [Example 6, 4-(4-{[2-(4-chlorophenyl)-4,4-dimethylcyclohex-1-en-1-yl]methyl}piperazin-1-yl)-N-[(4-{[(4-hydroxytetrahydro-2H-pyran-4-yl)methyl]amino}-3-nitrophenyl)sulfonyl]-2-(1H-pyrrolo[2,3-b]pyridin-5-yloxy)benzamide]
GST-Bcl-2
  Ki: < 0.1 nM
RS4;11 cells
  EC50: 7.6 nM
lymphocytes; [1]
  inhibition at 30 mg/kg: 24%
lymphocytes; [2]
  inhibition at 30 mg/kg: < 15%

## CC1(C)CCC(CN2CCN(c3ccc(C(=O)NS(=O)(=O)c4ccc(NC[C@H]5COCCO5)c([N+](=O)[O-])c4)c(Oc4cnc5[nH]ccc5c4)c3)CC2)=C(c2ccc(Cl)cc2)C1 [Example 9, 4-(4-{[2-(4-chlorophenyl)-4,4-dimethylcyclohex-1-en-1-yl]methyl}piperazin-1-yl)-N-[(4-{[(2S)-1,4-dioxan-2-ylmethyl]amino}-3-nitrophenyl)sulfonyl]-2-(1H-pyrrolo[2,3-b]pyridin-5-yloxy)benzamide]
GST-Bcl-2
  Ki: < 0.1 nM
RS4;11 cells
  EC50: 2.2 nM
lymphocytes; [1]
  inhibition at 30 mg/kg: 58%
lymphocytes; [2]
  inhibition at 30 mg/kg: 69%

## CC1(C)CCC(CN2CCN(c3ccc(C(=O)NS(=O)(=O)c4ccc(NCC5(CO)CCOCC5)c([N+](=O)[O-])c4)c(Oc4cnc5[nH]ccc5c4)c3)CC2)=C(c2ccc(Cl)cc2)C1 [Example 10, 4-(4-{[2-(4-chlorophenyl)-4,4-dimethylcyclohex-1-en-1-yl]methyl}piperazin-1-yl)-N-{[4-({[4-(hydroxymethyl)tetrahydro-2H-pyran-4-yl]methyl}amino)-3-nitrophenyl]sulfonyl}-2-(1H-pyrrolo[2,3-b]pyridin-5-yloxy)benzamide]
GST-Bcl-2
  Ki: < 0.1 nM
RS4;11 cells
  EC50: 8.1 nM
lymphocytes; [1]
  inhibition at 30 mg/kg: < 15%
lymphocytes; [2]
  inhibition at 30 mg/kg: < 15%

## CC(C)(O)CCNc1ccc(S(=O)(=O)NC(=O)c2ccc(N3CCN(CC4=C(c5ccc(Cl)cc5)CC(C)(C)CC4)CC3)cc2Oc2cnc3[nH]ccc3c2)cc1[N+](=O)[O-] [Example 12, 4-(4-{[2-(4-chlorophenyl)-4,4-dimethylcyclohex-1-en-1-yl]methyl}piperazin-1-yl)-N-({4-[(3-hydroxy-3-methylbutyl)amino]-3-nitrophenyl}sulfonyl)-2-(1H-pyrrolo[2,3-b]pyridin-5-yloxy)benzamide]
GST-Bcl-2
  Ki: < 0.1 nM
RS4;11 cells
  EC50: 30 nM
lymphocytes; [1]
  inhibition at 30 mg/kg: 27%
lymphocytes; [2]
  inhibition at 30 mg/kg: 41%

## CC1(C)CCC(CN2CCN(c3ccc(C(=O)NS(=O)(=O)c4ccc(NC[C@@H]5[C@H]6COC[C@@H]56)c([N+](=O)[O-])c4)c(Oc4cnc5[nH]ccc5c4)c3)CC2)=C(c2ccc(Cl)cc2)C1 [Example 14, 4-(4-{[2-(4-chlorophenyl)-4,4-dimethylcyclohex-1-en-1-yl]methyl}piperazin-1-yl)-N-[(3-nitro-4-{[(1R,5S,6S)-3-oxabicyclo[3.1.0]hex-6-ylmethyl]amino}phenyl)sulfonyl]-2-(1H-pyrrolo[2,3-b]pyridin-5-yloxy)benzamide]
GST-Bcl-2
  Ki: < 0.1 nM
RS4;11 cells
  EC50: 10 nM
lymphocytes; [1]
  inhibition at 30 mg/kg: 54%
lymphocytes; [2]
  inhibition at 30 mg/kg: 61%

## CC1(C)CCC(CN2CCN(c3ccc(C(=O)NS(=O)(=O)c4ccc(NCC5(O)COC5)c([N+](=O)[O-])c4)c(Oc4cnc5[nH]ccc5c4)c3)CC2)=C(c2ccc(Cl)cc2)C1 [Example 15, 4-(4-{[2-(4-chlorophenyl)-4,4-dimethylcyclohex-1-en-1-yl]methyl}piperazin-1-yl)-N-[(4-{[(3-hydroxyoxetan-3-yl)methyl]amino}-3-nitrophenyl)sulfonyl]-2-(1H-pyrrolo[2,3-b]pyridin-5-yloxy)benzamide]
GST-Bcl-2
  Ki: < 0.1 nM
RS4;11 cells
  EC50: 9.3 nM
lymphocytes; [1]
  inhibition at 30 mg/kg: < 15%
lymphocytes; [2]
  inhibition at 30 mg/kg: < 15%

## CC1(C)CCC(CN2CCN(c3ccc(C(=O)NS(=O)(=O)c4ccc(NN5CCOCC5)c([N+](=O)[O-])c4)c(Oc4cnc5[nH]ccc5c4)c3)CC2)=C(c2ccc(Cl)cc2)C1 [Example 16, 4-(4-{[2-(4-chlorophenyl)-4,4-dimethylcyclohex-1-en-1-yl]methyl}piperazin-1-yl)-N-{[4-(morpholin-4-ylamino)-3-nitrophenyl]sulfonyl}-2-(1H-pyrrolo[2,3-b]pyridin-5-yloxy)benzamide]
GST-Bcl-2
  Ki: < 0.1 nM
RS4;11 cells
  EC50: 67 nM
lymphocytes; [1]
  inhibition at 30 mg/kg: < 15%
lymphocytes; [2]
  inhibition at 30 mg/kg: < 15%

## CC1(C)CCC(CN2CCN(c3ccc(C(=O)NS(=O)(=O)c4ccc(NNC5CCOCC5)c([N+](=O)[O-])c4)c(Oc4cnc5[nH]ccc5c4)c3)CC2)=C(c2ccc(Cl)cc2)C1 [Example 18, 4-(4-{[2-(4-chlorophenyl)-4,4-dimethylcyclohex-1-en-1-yl]methyl}piperazin-1-yl)-N-({3-nitro-4-[2-(tetrahydro-2H-pyran-4-yl)hydrazinyl]phenyl}sulfonyl)-2-(1H-pyrrolo[2,3-b]pyridin-5-yloxy)benzamide]
GST-Bcl-2
  Ki: < 0.1 nM
RS4;11 cells
  EC50: 47 nM
lymphocytes; [1]
  inhibition at 30 mg/kg: 25%
lymphocytes; [2]
  inhibition at 30 mg/kg: < 15%

## CC1(C)CCC(CN2CCN(c3ccc(C(=O)NS(=O)(=O)c4ccc(NCC5CCOCC5)c([N+](=O)[O-])c4)c(Oc4cnc5[nH]ccc5c4)c3)CC2)=C(c2ccc(Cl)c(Cl)c2)C1 [Example 53, 4-(4-{[2-(3,4-dichlorophenyl)-4,4-dimethylcyclohex-1-en-1-yl]methyl}piperazin-1-yl)-N-({3-nitro-4-[(tetrahydro-2H-pyran-4-ylmethyl)amino]phenyl}sulfonyl)-2-(1H-pyrrolo[2,3-b]pyridin-5-yloxy)benzamide]
GST-Bcl-2
  Ki: 0.2 nM
RS4;11 cells
  EC50: 46 nM
